Where “and” joins values, the source holds several entries; their conditions need not be identical. Equal entries are not always repeated.
Columns and labels:
[1] = Blood pressure of anaesthetized normotensive rats; format: in vivo, rat
Experimental: Eighteen normotensive rats were anaesthetized with thiopental (70 mg/kg) by ip injection. The left carotid artery was cannulated with tubing filled with heparin solution in saline to facilitate pressure measurements using Apparatus PowerLab 4/35 (ADInstruments, Australia). Blood pressure was measured: before ip administration of 4-OH-Guanabenz at the doses of 2 or 5 or 10 mg/kg b.w. or water – time 0 min (control pressure) and continuously during the next 60 min.

[2] = Blood pressure, 24-h telemetric method, normotensive rats; format: in vivo, rat; settings: rat, 5 mg/kg
Experimental: The blood pressure of rats treated with the tested compound was measured for a 24 h period after ip treatment (5 mg/kg b.w.) with a special telemetric system Stellar (TSE-Systems, Germany).
Surgery: The operation was carried out over 30 min under sterile conditions. Rats were anaesthetized with ketamine and xylasine (intramuscular injection: 100 mg/kg and 10 mg/kg). Before surgery and for 7 days after, the animals were also treated with cefuroxime (20 mg/kg/day) via intramuscular injection and ketoprofen (5 mg/kg/day) via ip injection. […] The transmitter was sutured to the peritoneal cavity.
The rats were individually caged for 2 weeks to heal after surgical cut. The animals were then placed in pairs in cages to reduce their isolation stress. Blood pressure was measured: before ip administration of the compounds – time 0 min and 24 h thereafter.

[3] = 2 mg/kg, time 0, individual rats 1-6
[4] = 2 mg/kg, time 5, individual rats 1-6
[5] = 2 mg/kg, time 10, individual rats 1-6
[6] = 2 mg/kg, time 15, individual rats 1-6
[7] = 2 mg/kg, time 20, individual rats 1-6
[8] = 2 mg/kg, time 30, individual rats 1-6
[9] = 2 mg/kg, time 40, individual rats 1-6
[10] = 2 mg/kg, time 50, individual rats 1-6
[11] = 2 mg/kg, time 60, individual rats 1-6
[12] = 5 mg/kg, time 0, individual rats 1-6
[13] = 5 mg/kg, time 5, individual rats 1-6
[14] = 5 mg/kg, time 10, individual rats 1-6
[15] = 5 mg/kg, time 15, individual rats 1-6
[16] = 5 mg/kg, time 20, individual rats 1-6
[17] = 5 mg/kg, time 30, individual rats 1-6
[18] = 5 mg/kg, time 40, individual rats 1-6
[19] = 5 mg/kg, time 50, individual rats 1-6
[20] = 5 mg/kg, time 60, individual rats 1-6
[21] = 10 mg/kg, time not printed (1st of 9 lines), individual rats 1-6
[22] = 10 mg/kg, time not printed (2nd of 9 lines), individual rats 1-6
[23] = 10 mg/kg, time not printed (3rd of 9 lines), individual rats 1-6
[24] = 10 mg/kg, time not printed (4th of 9 lines), individual rats 1-6
[25] = 10 mg/kg, time not printed (5th of 9 lines), individual rats 1-6
[26] = 10 mg/kg, time not printed (6th of 9 lines), individual rats 1-6
[27] = 10 mg/kg, time not printed (7th of 9 lines), individual rats 1-6
[28] = 10 mg/kg, time not printed (8th of 9 lines), individual rats 1-6
[29] = 10 mg/kg, time not printed (9th of 9 lines), individual rats 1-6

With `N=C(N)N/N=C/c1c(Cl)cc(O)cc1Cl` [4HOGuanabenz] the diastolic pressure [1, 3] was 104 mmHg and 92 mmHg and 99 mmHg and 108 mmHg and 82 mmHg and 91 mmHg, the systolic pressure [1, 3] was 135 mmHg and 127 mmHg and 134 mmHg and 140 mmHg and 114 mmHg and 116 mmHg and the diastolic pressure [1, 4] was 110 mmHg and 93 mmHg (2×) and 102 mmHg and 104 mmHg and 89 mmHg. The systolic pressure [1, 4] was 140 mmHg and 125 mmHg and 136 mmHg and 137 mmHg and 119 mmHg and 116 mmHg, the diastolic pressure [1, 5] was 105 mmHg and 88 mmHg (2×) and 96 mmHg and 99 mmHg and 92 mmHg and the systolic pressure [1, 5] was 134 mmHg and 120 mmHg and 130 mmHg (2×) and 119 mmHg and 116 mmHg. The diastolic pressure [1, 6] was 103 mmHg and 86 mmHg (2×) and 94 mmHg and 99 mmHg and 89 mmHg, the systolic pressure [1, 6] was 133 mmHg and 117 mmHg and 128 mmHg and 129 mmHg and 115 mmHg and 114 mmHg and the diastolic pressure [1, 7] was 99 mmHg and 84 mmHg and 92 mmHg and 96 mmHg and 86 mmHg and 85 mmHg. The systolic pressure [1, 7] was 128 mmHg and 115 mmHg and 124 mmHg and 125 mmHg and 112 mmHg and 111 mmHg, the diastolic pressure [1, 8] was 96 mmHg and 85 mmHg and 91 mmHg and 94 mmHg and 82 mmHg and 86 mmHg and the systolic pressure [1, 8] was 125 mmHg and 111 mmHg and 120 mmHg and 121 mmHg and 106 mmHg and 107 mmHg. For the same molecule, the diastolic pressure [1, 9] was 101 mmHg and 86 mmHg and 90 mmHg and 93 mmHg and 79 mmHg and 85 mmHg, the systolic pressure [1, 9] was 131 mmHg and 116 mmHg and 119 mmHg (2×) and 104 mmHg and 105 mmHg and the diastolic pressure [1, 10] was 99 mmHg and 83 mmHg and 90 mmHg and 95 mmHg and 76 mmHg and 85 mmHg. The systolic pressure [1, 10] was 129 mmHg and 110 mmHg and 116 mmHg and 124 mmHg and 101 mmHg and 104 mmHg, the diastolic pressure [1, 11] was 96 mmHg (2×) and 83 mmHg and 90 mmHg and 73 mmHg and 85 mmHg and the systolic pressure [1, 11] was 125 mmHg and 111 mmHg and 118 mmHg and 122 mmHg and 98 mmHg and 103 mmHg. For the same molecule, the diastolic pressure [1, 12] was 73 mmHg and 104 mmHg and 91 mmHg and 101 mmHg and 95 mmHg and 99 mmHg, the systolic pressure [1, 12] was 115 mmHg and 133 mmHg and 114 mmHg and 135 mmHg and 122 mmHg and 131 mmHg and the diastolic pressure [1, 13] was 71 mmHg and 106 mmHg and 112 mmHg and 113 mmHg and 100 mmHg and 108 mmHg. For the same molecule, the systolic pressure [1, 13] was 105 mmHg and 136 mmHg and 150 mmHg and 144 mmHg and 133 mmHg and 145 mmHg, the diastolic pressure [1, 14] was 63 mmHg and 92 mmHg and 98 mmHg (2×) and 101 mmHg and 90 mmHg and the systolic pressure [1, 14] was 97 mmHg and 121 mmHg and 129 mmHg and 132 mmHg and 120 mmHg and 130 mmHg. The diastolic pressure [1, 15] was 62 mmHg and 89 mmHg and 87 mmHg and 95 mmHg and 83 mmHg and 91 mmHg, the systolic pressure [1, 15] was 94 mmHg and 117 mmHg and 115 mmHg and 125 mmHg and 110 mmHg and 121 mmHg and the diastolic pressure [1, 16] was 61 mmHg and 89 mmHg and 85 mmHg and 95 mmHg and 79 mmHg and 91 mmHg. The systolic pressure [1, 16] was 93 mmHg and 115 mmHg and 109 mmHg and 124 mmHg and 105 mmHg and 117 mmHg, the diastolic pressure [1, 17] was 63 mmHg and 90 mmHg and 86 mmHg and 93 mmHg (2×) and 77 mmHg and the systolic pressure [1, 17] was 92 mmHg and 117 mmHg and 108 mmHg and 122 mmHg and 103 mmHg and 121 mmHg. The diastolic pressure [1, 18] was 64 mmHg and 87 mmHg and 89 mmHg and 98 mmHg and 78 mmHg and 94 mmHg, the systolic pressure [1, 18] was 92 mmHg and 111 mmHg and 109 mmHg and 127 mmHg and 107 mmHg and 119 mmHg and the diastolic pressure [1, 19] was 65 mmHg and 87 mmHg and 89 mmHg and 91 mmHg and 78 mmHg and 96 mmHg. The systolic pressure [1, 19] was 91 mmHg and 112 mmHg and 110 mmHg and 115 mmHg and 102 mmHg and 124 mmHg, the diastolic pressure [1, 20] was 67 mmHg and 88 mmHg and 84 mmHg and 91 mmHg and 83 mmHg and 93 mmHg and the systolic pressure [1, 20] was 92 mmHg and 112 mmHg and 104 mmHg and 113 mmHg and 111 mmHg and 118 mmHg. The diastolic pressure [1, 21] was 75 mmHg and 81 mmHg and 116 mmHg and 86 mmHg and 114 mmHg and 107 mmHg, the systolic pressure [1, 21] was 113 mmHg and 125 mmHg and 158 mmHg and 100 mmHg and 145 mmHg and 140 mmHg and the diastolic pressure [1, 22] was 95 mmHg and 98 mmHg and 122 mmHg and 99 mmHg and 117 mmHg and 109 mmHg. The systolic pressure [1, 22] was 125 mmHg and 126 mmHg and 177 mmHg and 111 mmHg and 164 mmHg and 139 mmHg, the diastolic pressure [1, 23] was 89 mmHg and 95 mmHg and 109 mmHg and 87 mmHg and 111 mmHg and 107 mmHg and the systolic pressure [1, 23] was 115 mmHg and 124 mmHg and 150 mmHg and 101 mmHg and 151 mmHg and 134 mmHg. For the same molecule, the diastolic pressure [1, 24] was 86 mmHg and 95 mmHg and 106 mmHg and 84 mmHg and 107 mmHg and 103 mmHg, the systolic pressure [1, 24] was 112 mmHg and 127 mmHg and 135 mmHg and 96 mmHg and 142 mmHg and 131 mmHg and the diastolic pressure [1, 25] was 84 mmHg (2×) and 92 mmHg and 108 mmHg and 103 mmHg (2×). For the same molecule, the systolic pressure [1, 25] was 110 mmHg and 121 mmHg and 133 mmHg and 95 mmHg and 135 mmHg and 129 mmHg, the diastolic pressure [1, 26] was 83 mmHg and 91 mmHg and 105 mmHg and 81 mmHg and 101 mmHg (2×) and the systolic pressure [1, 26] was 108 mmHg and 123 mmHg and 135 mmHg and 91 mmHg and 132 mmHg and 127 mmHg. For the same molecule, the diastolic pressure [1, 27] was 82 mmHg and 88 mmHg and 96 mmHg and 80 mmHg and 99 mmHg and 101 mmHg, the systolic pressure [1, 27] was 107 mmHg and 116 mmHg and 126 mmHg and 90 mmHg and 130 mmHg and 124 mmHg and the diastolic pressure [1, 28] was 84 mmHg and 90 mmHg and 106 mmHg and 78 mmHg and 98 mmHg and 97 mmHg. The systolic pressure [1, 28] was 107 mmHg and 121 mmHg and 134 mmHg and 87 mmHg and 129 mmHg and 122 mmHg, the diastolic pressure [1, 29] was 83 mmHg and 92 mmHg and 99 mmHg and 78 mmHg and 101 mmHg and 98 mmHg and the systolic pressure [1, 29] was 107 mmHg and 122 mmHg (2×) and 130 mmHg and 86 mmHg and 131 mmHg. For the same molecule, the “diastolic pressure, mean” value ([2]; time 0.5) was 94.25 mmHg, the “systolic pressure, mean” value ([2]; time 0.5) was 131.8 mmHg and the “diastolic pressure, mean” value ([2]; time 0.75) was 87.25 mmHg. For the same molecule, the “systolic pressure, mean” value ([2]; time 0.75) was 118.5 mmHg, the “diastolic pressure, mean” value ([2]; time 1) was 82.5 mmHg and the “systolic pressure, mean” value ([2]; time 1) was 111.8 mmHg.

— paper PMC10539439 (Pharmacological Reports, 2023)
